Reference: ChEMBL document CHEMBL1134001, “Novel inhibitors of the enzyme estrone sulfatase (ES)” (Bioorg Med Chem Lett, 2001)

Experiments:
[1] = target: T1, Steryl-sulfatase (Homo sapiens) (UniProt P08842); assay: Relative potency compared to EMATE against Estrone sulfatase
T1 sequence (whole entry): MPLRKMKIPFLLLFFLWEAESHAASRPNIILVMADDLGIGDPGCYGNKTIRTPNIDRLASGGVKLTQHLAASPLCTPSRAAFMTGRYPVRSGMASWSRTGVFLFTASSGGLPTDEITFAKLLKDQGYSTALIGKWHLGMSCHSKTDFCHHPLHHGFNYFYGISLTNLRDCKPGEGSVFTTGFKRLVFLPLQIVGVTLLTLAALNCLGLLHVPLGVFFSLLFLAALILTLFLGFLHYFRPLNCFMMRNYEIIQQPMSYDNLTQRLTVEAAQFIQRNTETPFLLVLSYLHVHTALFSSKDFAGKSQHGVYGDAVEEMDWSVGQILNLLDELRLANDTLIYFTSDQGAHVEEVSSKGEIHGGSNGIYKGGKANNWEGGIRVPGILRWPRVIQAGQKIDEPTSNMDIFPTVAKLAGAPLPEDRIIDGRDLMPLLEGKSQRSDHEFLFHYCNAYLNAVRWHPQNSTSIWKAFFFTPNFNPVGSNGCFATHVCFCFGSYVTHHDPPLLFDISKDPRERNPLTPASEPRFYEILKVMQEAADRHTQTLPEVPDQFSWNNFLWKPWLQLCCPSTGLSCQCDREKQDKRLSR

[2] = target: T2, Steryl-sulfatase (Homo sapiens, UniProt P08842); assay: Inhibition of Estrone sulfatase
T2 sequence (P08842 whole entry): T1 sequence (whole entry)

[3] = target: T1, Steryl-sulfatase (Homo sapiens); assay: Relative potency compared to COUMATE against Estrone sulfatase
[4] = target: T1, Steryl-sulfatase (Homo sapiens)
Description: (§1) Relative potency against Estrone sulfatase

[5] = target: T1, Steryl-sulfatase (Homo sapiens); remark: listed apart in the source
[6] = target: T1, Steryl-sulfatase (Homo sapiens); remark: listed apart in the source
Description: as §1

Potency [1]	IC50 [2] [µM]	Potency [3]	Potency [5]	Potency [6]	SMILES	Potency [4]
0.0126	39.8	0.301	–	–	CCCC(=O)c1ccc(OS(N)(=O)=O)cc1	–
0.0016	302	0.0397	–	–	CC(=O)c1ccc(OS(N)(=O)=O)cc1	–
0.0019	254	0.0472	–	–	NS(=O)(=O)Oc1ccc(C=O)cc1	–
0.0152	33	0.364	–	–	NS(=O)(=O)Oc1ccc(C(=O)Cc2ccccc2)cc1	–
0.147	3.4	3.53	–	–	CCCCCCCCC(=O)c1ccc(OS(N)(=O)=O)cc1	–
0.0385	13	0.923	–	–	CCCCCCCCCC(=O)c1ccc(OS(N)(=O)=O)cc1	–
–	12	–	0.0417	1	Cc1cc(=O)oc2cc(OS(N)(=O)=O)ccc12	–
0.1	5	2.4	–	–	CCCCCCC(=O)c1ccc(OS(N)(=O)=O)cc1	–
0.0893	5.6	2.14	–	–	CCCCCCCC(=O)c1ccc(OS(N)(=O)=O)cc1	–
0.0239	20.9	0.574	–	–	CCCCC(=O)c1ccc(OS(N)(=O)=O)cc1	–
0.0079	63	0.191	–	–	NS(=O)(=O)Oc1ccc(C(=O)c2ccccc2)cc1	–
0.0019	263	0.0456	–	–	NS(=O)(=O)Oc1ccc(C(=O)/C=C/c2ccccc2)cc1	–

SMILES	Potency [1]	IC50 [2] [µM]	Potency [3]	Potency [5]	Potency [6]	Potency [4]
C[C@]12CC[C@@H]3c4ccc(OS(N)(=O)=O)cc4CCC3[C@@H]1CCC2=O (single isomer, unassigned) [EMATE]	–	0.5	24	–	–	1
